Test results taken from the NIST ThermoML archive (doi:10.1021/je100377k).
± gives the expanded uncertainty stated by the source.

Conditions: 101.33 kPa, Liquid

| Structure (SMILES) | mass density (278.15 K) [kg/m3] | viscosity (278.15 K) [mPa·s] | mass density (283.15 K) [kg/m3] | viscosity (283.15 K) [mPa·s] | mass density (288.15 K) [kg/m3] | mass density (293.15 K) [kg/m3] | mass density (298.15 K) [kg/m3] | mass density (303.15 K) [kg/m3] | mass density (308.15 K) [kg/m3] | mass density (313.15 K) [kg/m3] | mass density (318.15 K) [kg/m3] | mass density (323.15 K) [kg/m3] | mass density (328.15 K) [kg/m3] | mass density (333.15 K) [kg/m3] | mass density (338.15 K) [kg/m3] | mass density (343.15 K) [kg/m3] | mass density (348.15 K) [kg/m3] | mass density (353.15 K) [kg/m3] | mass density (358.15 K) [kg/m3] | mass density (363.15 K) [kg/m3] | other results |
| --- | --- | --- | --- | --- | --- | --- | --- | --- | --- | --- | --- | --- | --- | --- | --- | --- | --- | --- | --- | --- | --- |
| CCC[n+]1cccc(C)c1.O=S(=O)([N-]S(=O)(=O)C(F)(F)F)C(F)(F)F | 1467.1 ± 1.9 | 159.86 ± 10 | 1462.3 ± 1.9 | 117.81 ± 5.5 | 1457.5 ± 1.8 | 1452.8 ± 1.8 | 1447.5 ± 1.8 | 1442.8 ± 1.8 | 1438.1 ± 1.8 | 1433.4 ± 1.8 | 1428.8 ± 1.8 | 1424.1 ± 1.8 | 1419.5 ± 1.8 | 1414.9 ± 1.8 | 1410.3 ± 1.7 | 1405.7 ± 1.7 | 1401.1 ± 1.7 | 1396.6 ± 1.7 | 1392.1 ± 1.7 | 1387.7 ± 1.7 | viscosity (288.15 K): 89.22 ± 2.9 mPa·s; viscosity (293.15 K): 69.11 ± 1.3 mPa·s; viscosity (298.15 K): 54.94 ± 0.55 mPa·s; viscosity (303.15 K): 44.22 ± 0.64 mPa·s; viscosity (308.15 K): 36.15 ± 0.53 mPa·s; viscosity (313.15 K): 29.98 ± 0.44 mPa·s; viscosity (318.15 K): 25.2 ± 0.37 mPa·s; viscosity (323.15 K): 21.43 ± 0.32 mPa·s; viscosity (328.15 K): 18.41 ± 0.27 mPa·s; viscosity (333.15 K): 15.97 ± 0.24 mPa·s; viscosity (338.15 K): 13.97 ± 0.21 mPa·s; viscosity (343.15 K): 12.31 ± 0.19 mPa·s; viscosity (348.15 K): 10.93 ± 0.17 mPa·s; viscosity (353.15 K): 9.769 ± 0.15 mPa·s; viscosity (358.15 K): 8.782 ± 0.14 mPa·s; viscosity (363.15 K): 7.937 ± 0.12 mPa·s |
| CCCCCC[n+]1ccccc1.O=S(=O)([N-]S(=O)(=O)C(F)(F)F)C(F)(F)F [1-hexylpyridinium bis(trifluromethylsulfonyl)imide] | 1412.5 ± 1.7 | 322.08 ± 32 | 1407.8 ± 1.7 | 229.05 ± 19 | 1403.2 ± 1.7 | 1398.7 ± 1.7 | 1394.2 ± 1.7 | 1389.7 ± 1.7 | 1385.2 ± 1.7 | 1380.7 ± 1.7 | 1376.3 ± 1.7 | 1371.8 ± 1.7 | 1367.3 ± 1.7 | 1362.9 ± 1.6 | 1358.5 ± 1.6 | 1354 ± 1.6 | 1349.6 ± 1.6 | 1345.3 ± 1.6 | 1340.9 ± 1.6 | 1336.6 ± 1.6 | viscosity (288.15 K): 167.56 ± 11 mPa·s; viscosity (293.15 K): 125.56 ± 6.3 mPa·s; viscosity (298.15 K): 96.21 ± 3.5 mPa·s; viscosity (303.15 K): 75.22 ± 1.7 mPa·s; viscosity (308.15 K): 59.86 ± 0.75 mPa·s; viscosity (313.15 K): 48.42 ± 0.7 mPa·s; viscosity (318.15 K): 39.74 ± 0.58 mPa·s; viscosity (323.15 K): 33.04 ± 0.48 mPa·s; viscosity (328.15 K): 27.79 ± 0.41 mPa·s; viscosity (333.15 K): 23.64 ± 0.35 mPa·s; viscosity (338.15 K): 20.3 ± 0.3 mPa·s; viscosity (343.15 K): 17.58 ± 0.26 mPa·s; viscosity (348.15 K): 15.35 ± 0.23 mPa·s; viscosity (353.15 K): 13.51 ± 0.2 mPa·s; viscosity (358.15 K): 11.96 ± 0.18 mPa·s; viscosity (363.15 K): 10.66 ± 0.16 mPa·s |
| CCCC[n+]1ccc(C)cc1.O=S(=O)([N-]S(=O)(=O)C(F)(F)F)C(F)(F)F | 1431 ± 1.8 | 169.9 ± 11 | 1426.3 ± 1.8 | 124.19 ± 6.2 | 1421.6 ± 1.8 | 1416.9 ± 1.8 | 1412.2 ± 1.7 | 1407.6 ± 1.7 | 1402.9 ± 1.7 | 1398.3 ± 1.7 | 1393.6 ± 1.7 | 1389 ± 1.7 | 1384.4 ± 1.7 | 1379.8 ± 1.7 | 1375.3 ± 1.7 | 1370.7 ± 1.7 | 1366.2 ± 1.7 | 1361.7 ± 1.6 | 1357.2 ± 1.6 | 1352.7 ± 1.6 | viscosity (288.15 K): 93.27 ± 3.2 mPa·s; viscosity (293.15 K): 71.72 ± 1.5 mPa·s; viscosity (298.15 K): 56.33 ± 0.6 mPa·s; viscosity (303.15 K): 45.07 ± 0.66 mPa·s; viscosity (308.15 K): 36.67 ± 0.54 mPa·s; viscosity (313.15 K): 30.28 ± 0.44 mPa·s; viscosity (318.15 K): 25.34 ± 0.37 mPa·s; viscosity (323.15 K): 21.45 ± 0.32 mPa·s; viscosity (328.15 K): 18.36 ± 0.27 mPa·s; viscosity (333.15 K): 15.87 ± 0.24 mPa·s; viscosity (338.15 K): 13.82 ± 0.21 mPa·s; viscosity (343.15 K): 12.13 ± 0.18 mPa·s; viscosity (348.15 K): 10.72 ± 0.16 mPa·s; viscosity (353.15 K): 9.54 ± 0.15 mPa·s; viscosity (358.15 K): 8.531 ± 0.13 mPa·s; viscosity (363.15 K): 7.673 ± 0.12 mPa·s |
| CCCC[n+]1ccccc1.O=S(=O)([N-]S(=O)(=O)C(F)(F)F)C(F)(F)F [1-butylpyridinium bis[(trifluoromethyl)sulfonyl]imide] | 1467.6 ± 1.9 | 181.81 ± 13 | 1462.8 ± 1.9 | 133.34 ± 7.1 | 1458.1 ± 1.8 | 1453.4 ± 1.8 | 1448.7 ± 1.8 | 1444 ± 1.8 | 1439.3 ± 1.8 | 1434.6 ± 1.8 | 1430 ± 1.8 | 1425.4 ± 1.8 | 1420.7 ± 1.8 | 1416.1 ± 1.8 | 1411.6 ± 1.7 | 1407 ± 1.7 | 1402.5 ± 1.7 | 1398 ± 1.7 | 1393.5 ± 1.7 | 1389 ± 1.7 | viscosity (288.15 K): 100.65 ± 3.9 mPa·s; viscosity (293.15 K): 77.72 ± 1.9 mPa·s; viscosity (298.15 K): 61.25 ± 0.82 mPa·s; viscosity (303.15 K): 49.15 ± 0.72 mPa·s; viscosity (308.15 K): 40.09 ± 0.58 mPa·s; viscosity (313.15 K): 33.17 ± 0.49 mPa·s; viscosity (318.15 K): 27.81 ± 0.41 mPa·s; viscosity (323.15 K): 23.59 ± 0.35 mPa·s; viscosity (328.15 K): 20.23 ± 0.3 mPa·s; viscosity (333.15 K): 17.51 ± 0.26 mPa·s; viscosity (338.15 K): 15.28 ± 0.23 mPa·s; viscosity (343.15 K): 13.44 ± 0.2 mPa·s; viscosity (348.15 K): 11.91 ± 0.18 mPa·s; viscosity (353.15 K): 10.62 ± 0.16 mPa·s; viscosity (358.15 K): 9.528 ± 0.15 mPa·s; viscosity (363.15 K): 8.594 ± 0.13 mPa·s |
| CCCC[n+]1cccc(C)c1.O=S(=O)([N-]S(=O)(=O)C(F)(F)F)C(F)(F)F | 1431.2 ± 1.8 | – | 1426.6 ± 1.8 | – | 1421.9 ± 1.8 | 1417.4 ± 1.8 | 1412.8 ± 1.7 | 1408.2 ± 1.7 | 1403.6 ± 1.7 | 1399 ± 1.7 | 1394.5 ± 1.7 | 1389.9 ± 1.7 | 1385.4 ± 1.7 | 1380.9 ± 1.7 | 1376.4 ± 1.7 | 1371.9 ± 1.7 | 1367.4 ± 1.7 | 1362.9 ± 1.6 | 1358.5 ± 1.6 | 1354.1 ± 1.6 | viscosity (278.15 K, Capillary tube (Ostwald / Ubbelohde) method): 195.43 ± 4.6 mPa·s; viscosity (283.15 K, Capillary tube (Ostwald / Ubbelohde) method): 142.73 ± 2.7 mPa·s; viscosity (288.15 K, Capillary tube (Ostwald / Ubbelohde) method): 107.15 ± 1.6 mPa·s; viscosity (293.15 K, Capillary tube (Ostwald / Ubbelohde) method): 82.19 ± 0.97 mPa·s; viscosity (298.15 K, Capillary tube (Ostwald / Ubbelohde) method): 64.36 ± 0.62 mPa·s; viscosity (303.15 K, Capillary tube (Ostwald / Ubbelohde) method): 51.39 ± 0.45 mPa·s; viscosity (308.15 K, Capillary tube (Ostwald / Ubbelohde) method): 41.64 ± 0.4 mPa·s; viscosity (313.15 K, Capillary tube (Ostwald / Ubbelohde) method): 34.26 ± 0.33 mPa·s; viscosity (318.15 K, Capillary tube (Ostwald / Ubbelohde) method): 28.57 ± 0.27 mPa·s; viscosity (323.15 K, Capillary tube (Ostwald / Ubbelohde) method): 24.1 ± 0.23 mPa·s; viscosity (328.15 K, Capillary tube (Ostwald / Ubbelohde) method): 20.57 ± 0.2 mPa·s; viscosity (333.15 K, Capillary tube (Ostwald / Ubbelohde) method): 17.71 ± 0.17 mPa·s; viscosity (338.15 K, Capillary tube (Ostwald / Ubbelohde) method): 15.38 ± 0.15 mPa·s; viscosity (343.15 K, Capillary tube (Ostwald / Ubbelohde) method): 13.47 ± 0.13 mPa·s; viscosity (348.15 K, Capillary tube (Ostwald / Ubbelohde) method): 11.9 ± 0.11 mPa·s; viscosity (353.15 K, Capillary tube (Ostwald / Ubbelohde) method): 10.56 ± 0.1 mPa·s; viscosity (358.15 K, Capillary tube (Ostwald / Ubbelohde) method): 9.44 ± 0.091 mPa·s; viscosity (363.15 K, Capillary tube (Ostwald / Ubbelohde) method): 8.484 ± 0.082 mPa·s |
| CCCCCCCC[n+]1cccc(C)c1 [1-octyl-3-methylpyridinium] | 1347.2 ± 1.6 | 398.72 ± 45 | 1342.7 ± 1.6 | 281.38 ± 26 | 1338.2 ± 1.6 | 1333.8 ± 1.6 | 1329.5 ± 1.6 | 1325.2 ± 1.6 | 1320.9 ± 1.6 | 1316.6 ± 1.5 | 1312.3 ± 1.5 | 1308 ± 1.5 | 1303.7 ± 1.5 | 1299.5 ± 1.5 | 1295.2 ± 1.5 | 1290.9 ± 1.5 | 1286.7 ± 1.5 | 1282.5 ± 1.5 | 1278.3 ± 1.5 | 1274.1 ± 1.5 | viscosity (288.15 K): 204.35 ± 16 mPa·s; viscosity (293.15 K): 151.98 ± 9.2 mPa·s; viscosity (298.15 K): 115.55 ± 5.3 mPa·s; viscosity (303.15 K): 89.6 ± 2.9 mPa·s; viscosity (308.15 K): 70.72 ± 1.4 mPa·s; viscosity (313.15 K): 56.77 ± 0.62 mPa·s; viscosity (318.15 K): 46.23 ± 0.67 mPa·s; viscosity (323.15 K): 38.14 ± 0.56 mPa·s; viscosity (328.15 K): 31.86 ± 0.47 mPa·s; viscosity (333.15 K): 26.91 ± 0.4 mPa·s; viscosity (338.15 K): 22.95 ± 0.34 mPa·s; viscosity (343.15 K): 19.77 ± 0.29 mPa·s; viscosity (348.15 K): 17.16 ± 0.26 mPa·s; viscosity (353.15 K): 15.02 ± 0.23 mPa·s; viscosity (358.15 K): 13.23 ± 0.2 mPa·s; viscosity (363.15 K): 11.74 ± 0.18 mPa·s |
